Measured values: patent US11357776B2, “Pharmaceutical combinations comprising a histone deacetylase inhibitor and an aurora kinase inhibitor and methods of use thereof” (ACETYLON PHARMACEUTICALS, INC., priority 2016, dated 2022)

Tests used:
[1] = tested on: aurora kinase; details: aurora kinase isoform selectivity, Choudary et al. 2015; cited from earlier work
[2] = tested on: Jeko-1 mantle cell lymphoma, SU-DHL-4 B cell lymphoma, and Jurkat T cell lymphoma cells; test: Annexin V / propidium iodide flow cytometry apoptosis assay; assay type: cell-based; details: 72 hours; 3 μM Compound B, 0.01 or 0.03 μM alisertib, alone or combined; single-agent effect in some cell lines only
Procedure: To test for induction of apoptosis, Jeko-1 mantle cell lymphoma, SU-DHL-4 B cell lymphoma, and Jurkat T cell lymphoma cells were treated for 72 hours with either: DMSO, 3 μM of Compound B, 0.01 μM of alisertib, 0.03 μM of alisertib, or a combination of both Compound B and alisertib for 72 hrs. Cells were then harvested and stained with Annexin V, which recognizes an epitope on cells in the early stages of apoptosis. Cells were also stained with propidium iodide, which is excluded from cells with intact membranes, thus marking only dead cells. Flow cytometry analysis was then performed to measure the number of healthy and apoptotic cells under each treatment condition.

[3] = tested on: Jurkat T cell lymphoma cells; test: as above; assay type: cell-based; details: 72 hours, 3 μM Compound A or B, 0.01 μM alisertib, alone or combined
Procedure: To determine the extent that the combination therapies of Compound A/alisertib and Compound B/alisertib promote induction of apoptosis, Jurkat T cell lymphoma cells were treated with: DMSO, 3 μM of Compound B, 3 μM of Compound A, 0.01 μM of alisertib, a combination of Compound B/alisertib, or a combination of Compound A/alisertib, for 72 hours. Cells were then harvested and stained with Annexin V and propidium iodide as above. Flow cytometry analysis was then used to measure the number of healthy and apoptotic cells under each treatment condition.

[4] = tested on: survivin, Aurora A, Aurora B, BubR1, CDC20 and MAD2L1 gene transcripts in H929 multiple myeloma cells; test: Microarray gene expression profiling of H929 cells; assay type: cell-based; details: H929 cells, 2, 3, or 4 μM, 24 hours or 48 hours, Affymetrix microarray
Procedure: Microarray gene expression profiling was performed in H929 multiple myeloma (MM) cells to determine whether key mitotic regulators are down regulated by […]. H929 multiple myeloma cells were treated for 24 hours or 48 hours with 2, 3, or 4 μM of Compound A. Total RNA was extracted from the cells and subjected to gene expression profiling using an Affymetrix microarray system (Santa Clara, Calif.).

[5] = tested on: survivin, Aurora A, Aurora B, BubR1, CDC20 and MAD2L1 gene transcripts in H929 MM, U266 MM and Jeko-1 MCL cell lines; test: qPCR analysis of mitotic regulator downregulation across MM and MCL cell lines; assay type: cell-based; details: U266 MM and Jeko-1 MCL cells
Procedure: Independent qPCR validation of mitotic regulator downregulation by Compound A across MM and MCL cell lines was performed using H929 MM, U266 MM and Jeko-1 MCL cell lines. The cells were treated with Compound A. Total RNA was extracted and gene expression was measured by quantitative polymerase chain reaction (PCR) analysis.

Compound | Selectivity [1] | percentage of cells undergoing apoptosis [3] | also measured
CO[C@@H](C(=O)N1Cc2[nH]nc(NC(=O)c3ccc(N4CCN(C)CC4)cc3)c2C1)c1ccccc1 [Danusertib] | Pan | – | –
Cc1cc(Nc2cc(N3CCN(C)CC3)nc(/C=C/c3ccccc3)n2)n[nH]1 [ENMD- 2076] | Aurora A | – | –
O=C(CCCCCCNC(=O)c1cnc(N(c2ccccc2)c2ccccc2Cl)nc1)NO [Compound B, 2-((2-chlorophenyl)(phenyl)amino)-N-(7-(hydroxyamino)-7-oxoheptyl)pyrimidine-5-carboxamide] | – | minimal induction of apoptosis | percentage of cells undergoing apoptosis [2]: some induction of apoptosis
Cc1cc(Nc2cc(N3CCN(C)CC3)nc(Sc3ccc(NC(=O)C4CC4)cc3)n2)[nH]n1 [Tozasertib] | Pan | – | –
O=C(O)[C@]1(Cc2cccc(Nc3nccs3)n2)CC[C@@H](Oc2cccc(Cl)c2F)CC1 [MK-5108] | Aurora A | – | –
O=C(CCCCCCNC(=O)c1cnc(N(c2ccccc2)c2ccccc2)nc1)NO [Compound A, 2-(diphenylamino)-N-(7-(hydroxyamino)-7-oxoheptyl)pyrimidine-5-carboxamide] | – | minimal induction of apoptosis | expression of key mitotic regulatory genes (relative fold induction vs DMSO) [4]: reduced the expression; expression of key mitotic regulatory genes (relative to RPLP1, vs DMSO) [5]: reduced the expression
COc1cc(Nc2ncc3c(n2)-c2ccc(Cl)cc2C(c2c(F)cccc2OC)=NC3)ccc1C(=O)O [Alisertib] | Aurora A | minimal induction of apoptosis | percentage of cells undergoing apoptosis [2]: some induction of apoptosis
CCN(CCCOc1ccc2c(Nc3cc(CC(=O)Nc4cccc(F)c4)[nH]n3)ncnc2c1)CCOP(=O)(O)O [Barasertib] | Aurora B | – | –
O=C(Nc1c[nH]nc1-c1nc2cc(CN3CCOCC3)ccc2[nH]1)NC1CC1 [AT-9283] | Aurora A and Aurora B | – | –
Cc1cc(Nc2ncc(F)c(N[C@H]3[C@@H](C(N)=O)[C@@H]4C=C[C@H]3C4)n2)ccc1N1CCN(C)CC1 [MSC 1992371A] | Pan | – | –
